Bounds are passed on as bounds.

The first assay addresses T1, human GPR119 receptor (Homo sapiens, UniProt Q8TDV5, S329A/T327A).
T1 construct: N-terminal leader […]; expressed in transfected cells
T1 sequence (Q8TDV5 with tags, fused parts or gaps T327A/S329A): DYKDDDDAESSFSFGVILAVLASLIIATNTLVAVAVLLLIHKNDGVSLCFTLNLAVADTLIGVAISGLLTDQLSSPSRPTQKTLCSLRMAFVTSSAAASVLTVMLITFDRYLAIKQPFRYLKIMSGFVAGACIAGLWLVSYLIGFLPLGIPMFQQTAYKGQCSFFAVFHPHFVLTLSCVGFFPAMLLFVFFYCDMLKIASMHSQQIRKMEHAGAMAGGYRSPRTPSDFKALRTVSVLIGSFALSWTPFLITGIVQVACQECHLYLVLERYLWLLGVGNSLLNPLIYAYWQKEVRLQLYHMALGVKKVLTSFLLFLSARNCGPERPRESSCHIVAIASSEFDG
Kind of assay: cAMP assay (LANCE cAMP-384) in HEK293 cells stably expressing mutant human GPR119 receptor. The assay is classed as cell-based. As to conditions: HEK293, 20 min; at 10 μM; printed in EC50 column of the 36th table; read-out: stimulation in % at 10 μM. The method, boiled down: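 Agonist EC50 came from nonlinear regression over 12 concentrations (30 μM–100 pM), with % stimulation at 10 μM where no EC50 was obtained. Cells: stable HEK293 with mutant human GPR119 (T327A/S329A), 20 min compound at 37° C; cAMP read by LANCE kit with standard curve.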
Consider `CCc1ncc(CN2CCC(ON=C3CCN(c4ccc(S(C)(=O)=O)cc4F)CC3)CC2)cn1` [Example 66-49], for which the activation at 10 µM came out at 75%.

Staying with this assay, now noted: HEK293, 20 min; single concentration 10 μM; given where no EC50 value could be determined; read-out: % stimulation at 10 μM.
For `CC(C)OC(=O)N1CCC(ON=C2CCN(c3cc(Br)ccn3)CC2)CC1` [Example 2-67], the activation at 10 µM turned out to be 54%.

`COc1ncc(-c2cc(F)c(N3CCC(=NOC4CCN(C(=O)OC(C)C)CC4)CC3)cc2F)c(OC)n1` [Example 27-31]: the activation at 10 µM is 70%.

The same assay, now with this note: cAMP accumulation, HEK293 cells stably expressing mutant human GPR119; read-out: EC50.
On to `CC(C)OC(=O)N1CCC(ON=C2CCN(c3cc(F)c(CO)cc3F)CC2)CC1` [Example 10-1, 4-[1-(2,5-Difluoro-4-hydroxymethyl-phenyl)-piperidin-4-ylideneaminooxy]-piperidine-1-carboxylic acid isopropyl ester], for which the EC50 turned out to be 9 nM.

For the compound `COc1ccc(-c2cc(F)c(N3CCC(=NOC4CCN(C(=O)OC(C)C)CC4)CC3)cc2F)cn1` [Example 27-33], the EC50 stood at 891 nM.

For the compound `CC(C)OC(=O)N1CCC(ON=C2CCN(c3cc(F)c(CN4CCN(C(=O)OC(C)(C)C)CC4=O)cc3F)CC2)CC1` [Example 15-3], the EC50 is 408 nM.

As for `CC(C)OC(=O)N1CCC(ON=C2CCN(c3cc(F)c(CN4CCCC4)cc3F)CC2)CC1` [Example 5-1, 4-[1-(2,5-Difluoro-4-pyrrolidin-1-ylmethyl-phenyl)-piperidin-4-ylideneaminooxy]-piperidine-1-carboxylic acid isopropyl ester], the EC50 stood at 7830 nM.

As for `CC(C)OC(=O)N1CCC(ON=C2CCN(c3nc(Cl)ncc3Cl)CC2)CC1` [Example 2-49], the EC50 is 170 nM.

In the case of `CCc1cnc(-c2cc(F)c(N3CCC(=NOC4CCN(C(=O)OC(C)C)CC4)CC3)cc2F)nc1` [Example 27-21], the EC50 stood at 509 nM.

With `CC(=O)c1cc(F)c(N2CCC(=NOC3CCN(C(=O)OC(C)C)CC3)CC2)cc1F` [Example 2-23], the EC50 was 375 nM.

Regarding `CC(C)OC(=O)N1CCC(ON=C2CCN(c3cc(F)c(-c4nccs4)cc3F)CC2)CC1` [Example 27-18], the EC50 was determined as 137 nM.

With `CC(=O)NCc1cc(F)c(N2CCC(=NOC3CCN(C(=O)OC(C)C)CC3)CC2)cc1F` [Example 16-2], the EC50 came to 141 nM.

`CC(C)OC(=O)N1CCC(ON=C2CCN(c3cc(F)c(/C=C/C(=O)O)cc3F)CC2)CC1` [Example 40-1, 4-{1-[4-((E)-2-Carboxy-vinyl)-2,5-difluoro-phenyl]-piperidin-4-ylideneaminooxy}-piperidine-1-carboxylic acid isopropyl ester]: the EC50 worked out at 2570 nM.

In the case of `CC(C)OC(=O)N1CCC(ON=C2CCN(c3cc(F)c(CNS(C)(=O)=O)cc3F)CC2)CC1` [Example 16-3], the EC50 is 51 nM.

As to `CCOC(=O)CC(=O)c1cc(F)c(N2CCC(=NOC3CCN(C(=O)OC(C)C)CC3)CC2)nc1Cl` [Example 2-48], the EC50 is 146 nM.

For the compound `CC(C)OC(=O)N1CCC(ON=C2CCN(c3cc(F)c(CN4CCCC4=O)cc3F)CC2)CC1` [Example 6-1, 4-{1-[2,5-Difluoro-4-(2-oxo-pyrrolidin-1-ylmethyl)-phenyl]-piperidin-4-ylideneaminooxy}-piperidine-1-carboxylic acid isopropyl ester], the EC50 is 40 nM.

With `CSc1nc(N2CCC(=NOC3CCN(C(=O)OC(C)C)CC3)CC2)ncc1Br` [Example 2-55], the EC50 was above 10000 nM.

Take `CC(C)OC(=O)N1CCC(ON=C2CCN(c3c(Cl)cncc3Cl)CC2)CC1` [Example 2-39]: the EC50 is 1680 nM.

`CC(C)OC(=O)N1CCC(ON=C2CCN(c3cc(F)c(NS(N)(=O)=O)cc3F)CC2)CC1` [Example 38-1]: the EC50 was 197 nM.

As for `CC(C)OC(=O)N1CCC(ON=C2CCN(c3ccc(C=O)c(F)c3)CC2)CC1` [Example 2-20], the EC50 is 703 nM.

Take `CC(C)OC(=O)N1CCC(ON=C2CCN(c3cc(F)c(Cn4cccc4)cc3F)CC2)CC1` [Example 14-14]: the EC50 was 467 nM.

On to `COCCN(C)Cc1cc(F)c(N2CCC(=NOC3CCN(C(=O)OC(C)C)CC3)CC2)cc1F` [Example 5-5], for which the EC50 was above 10000 nM.

The same assay, now with this note: the 19th table; unit inferred; read-out: EC 50.
Turning to `CCc1cnc(N2CCC(ON=C3CCN(c4cc(F)c(C(=O)N5CCCCC5CNC)cc4F)CC3)CC2)nc1` (centres unmarked) [Example 29-136], the EC50 was found to be 120 nM.

For `CCc1cnc(N2CCC(ON=C3CCN(c4cc(F)c(C(=O)N5CCC[C@@H](N)C5)cc4F)CC3)CC2)nc1` [Example 29-88], the EC50 turned out to be 221 nM.

For the compound `CCc1cnc(N2CCC(ON=C3CCN(c4cc(F)c(C(=O)NCC5CCNC5)cc4F)CC3)CC2)nc1` (centres unmarked) [Example 29-139], the EC50 turned out to be 92 nM.

Staying with this assay, now noted: the 25th table; read-out: EC50.
Turning to `COC(=O)/C=C/c1cc(F)c(N2CCC(=NOC3CCN(C(=O)OC(C)C)CC3)CC2)cc1F` [Example 39-1, 4-{1-[2,5-Difluoro-4-((E)-2-methoxycarbonyl-vinyl)-phenyl]-piperidin-4-ylideneaminooxy}-piperidine-1-carboxylic acid isopropyl ester], the EC50 was found to be 46 nM.

Staying with this assay, now noted: the 29th table; read-out: EC50.
Regarding `CC(C)OC(=O)N1CCC(ON=C2CCN(c3ccc(CO)c(F)c3)CC2)CC1` [Example 52-1, 4-[1-(3-Fluoro-4-hydroxymethyl-phenyl)-piperidin-4-ylideneaminooxy]-piperidine-1-carboxylic acid isopropyl ester], the EC50 was above 10000 nM.

The same assay, now with this note: the 32nd table; read-out: EC50.
Consider `CS(=O)(=O)c1ccc(N2CCC(=NOC3CCN(c4ccc(C(F)(F)F)cn4)CC3)CC2)c(F)c1` [Example 63-14], for which the EC50 was found to be 495 nM.

As to `Cc1cc(C(F)(F)F)cc(N2CCC(ON=C3CCN(c4ccc(S(C)(=O)=O)cc4F)CC3)CC2)n1` [Example 63-13], the EC50 stood at 1490 nM.

Still in this assay, the particulars now being: the 33rd table; read-out: EC50.
`CS(=O)(=O)c1ccc(N2CCC(=NOC3CCN(C(=O)OCc4ccccn4)CC3)CC2)c(F)c1` [Example 64-17]: the EC50 was 1070 nM.

In the case of `CCC(C)COC(=O)N1CCC(ON=C2CCN(c3ccc(S(C)(=O)=O)cc3F)CC2)CC1` (centres unmarked) [Example 64-47], the EC50 came to 43 nM.

Take `CCC(CC)COC(=O)N1CCC(ON=C2CCN(c3ccc(S(C)(=O)=O)cc3F)CC2)CC1` [Example 64-49]: the EC50 worked out at 54 nM.

In the case of `COC(=O)[C@@H](C)COC(=O)N1CCC(ON=C2CCN(c3ccc(S(C)(=O)=O)cc3F)CC2)CC1` [Example 64-23], the EC50 turned out to be 928 nM.

On to `CS(=O)(=O)c1ccc(N2CCC(=NOC3CCN(C(=O)OC4CCNC4)CC3)CC2)c(F)c1` (centres unmarked) [Example 64-36], for which the EC50 is above 10000 nM.

Staying with this assay, now noted: the 34th table, compounds 65-1 to 65-24; read-out: EC50.
In the case of `CS(=O)(=O)c1ccc(N2CCC(=NOC3CCN(C(=O)Nc4ccccc4)CC3)CC2)c(F)c1` [Example 65-17], the EC50 is 2040 nM.

Take `CC(C)NC(=O)N1CCC(ON=C2CCN(c3ccc(S(C)(=O)=O)cc3F)CC2)CC1` [Example 65-8]: the EC50 is above 10000 nM.

Still in this assay, the particulars now being: the 36th table, compounds 66-1 to 66-51; read-out: EC50.
With `CCc1ccc(CN2CCC(ON=C3CCN(c4ccc(S(C)(=O)=O)cc4F)CC3)CC2)cc1` [Example 66-27], the EC50 amounted to 109 nM.

As for `Cn1ccnc1CN1CCC(ON=C2CCN(c3ccc(S(C)(=O)=O)cc3F)CC2)CC1` [Example 66-12], the EC50 is above 10000 nM.

Consider `Cc1cccc(CN2CCC(ON=C3CCN(c4ccc(S(C)(=O)=O)cc4F)CC3)CC2)c1` [Example 66-25], for which the EC50 worked out at 605 nM.

With `CS(=O)(=O)c1ccc(N2CCC(=NOC3CCN(Cc4ccccc4)CC3)CC2)c(F)c1` [Example 66-15], the EC50 is 982 nM.

On to `CS(=O)(=O)c1ccc(N2CCC(=NOC3CCN(Cc4ccc(C(F)(F)F)cc4)CC3)CC2)c(F)c1` [Example 66-31], for which the EC50 is 354 nM.

Staying with this assay, now noted: the 37th table, compounds 66-52 to 66-64; read-out: EC50.
As to `CCCCc1ccc(CN2CCC(ON=C3CCN(c4cc(F)c(S(C)(=O)=O)cc4F)CC3)CC2)cc1` [Example 66-57], the EC50 stood at 29 nM.

The assay is the same for the next values; noted with them: the 38th table, compounds 66-65 to 66-72; read-out: EC50.
`CNC(=O)c1cc(F)c(N2CCC(=NOC3CCN(Cc4ccc(C)cc4)CC3)CC2)cc1F` [Example 66-70]: the EC50 amounted to 193 nM.

Still in this assay, the particulars now being: the 39th table, compounds 67-1 to 67-3; read-out: EC50.
As to `Cc1ccc(N2CCC(ON=C3CCN(c4ccc(S(C)(=O)=O)cc4F)CC3)CC2)cn1` [Example 67-3], the EC50 turned out to be 745 nM.

The same assay, now with this note: the 43rd table, compounds 75-1 to 75-38; read-out: EC50.
As for `CC(C)OC(=O)N1CCC(ON=C2CCN(c3cc(F)c(CC(=O)N4CCCCC4CN4CCCC4)cc3F)CC2)CC1` (centres unmarked) [Example 75-30], the EC50 was 333 nM.

Consider `CNC1CCN(C(=O)Cc2cc(F)c(N3CCC(=NOC4CCN(C(=O)OC(C)C)CC4)CC3)cc2F)CC1` [Example 75-21], for which the EC50 was 126 nM.

In the case of `CC(C)OC(=O)N1CCC(ON=C2CCN(c3cc(F)c(CC(=O)N4CCCC(CN(C)C)C4)cc3F)CC2)CC1` (centres unmarked) [Example 75-37], the EC50 worked out at 155 nM.

For the compound `CC(C)OC(=O)N1CCC(ON=C2CCN(c3cc(F)c(CC(=O)N4CCC[C@@H]4CN4CCCC4)cc3F)CC2)CC1` [Example 75-28], the EC50 was found to be 246 nM.

The assay is the same for the next values; noted with them: the 44th table, compounds 77-1 to 77-14; read-out: EC50.
On to `CCc1cnc(N2CCC(ON=C3CCN(c4cc(F)c(CC(N)=O)cc4F)CC3)CC2)nc1` [Example 77-4], for which the EC50 turned out to be 32 nM.

Regarding `CCc1cnc(N2CCC(ON=C3CCN(c4cc(F)c(CC(=O)N5CCNCC5)cc4F)CC3)CC2)nc1` [Example 77-13], the EC50 came to 39 nM.

Values taken from patent US8293729B2 (Boehringer Ingelheim International GmbH, priority 2009, dated 2012).
